Assays:
PTEN [1] = test: Western blot, PTEN expression; format: cell-based, human
Description: (§1) Proteins are collected from cultured cells and lysed with 10× Lysis Buffer (Cell Signaling) freshly supplemented with a complete protease inhibitor cocktail and phosphatase inhibitors (Sigma). Bradford assay is used to measure protein concentration. Proteins are separated by polyacrylamide gel (Bio-rad) electrophoresis and were transferred to a 0.2 μm nitrocellulose membrane (Bio-rad). Quantification of protein expression was conducted using the image analysis software ImageJ.

[2] = Microsomal stability assay, mouse; format: in vitro ADME; settings: 1 μM test compound, unit printed in b356 only
Description: (§2) The liver microsomal incubation mixture was composed of liver microsomes (with a concentration of 0.5 mg microsomal protein/ml), the test compound (1 μM), MgCl2 (3 mM), EDTA (1 mM) in potassium phosphate buffer (100 mM, pH 7.4). Control substrates used were Midazolam and Ketanserin. The reaction was initiated with the addition of an NADPH regeneration solution (1.3 mM NADPH) and maintained at 37° C. with shaking. At five sequential time points ranging from 0 to 45 min, aliquots of the mixture (50 μL) were removed and quenched with acetonitrile (100 μL) containing an internal standard control (imipramine) Samples were analyzed after vortexing and centrifugation by liquid chromatography-mass spectrometry (LC-MS/MS). The in vitro t1/2 was then calculated and clearance followed literature.

[3] = Microsomal stability assay, rat; format: in vitro ADME; settings: 1 μM test compound, unit printed in b356 only
Description: as §2

U251 brain cancer line = test: Clonogenic assay; format: cell-based, human; settings: dose-dependent, 1 μM up to 5 μM, two weeks
Description: In vitro clonogenic assays were conducted with adherent lines seeded in 12-well plates, treated for two weeks, and stained with crystal violet.

Drosha = test: Western blot, Drosha expression; format: cell-based, human; settings: AsPC1, AGS, U251, LN229
Description: as §1

U251 cell line = test: MTS proliferation assay, U251; format: cell-based, human; settings: 5 and 10 μM, beginning at 48 h of treatment
Description: (§3) IC50 dose-response curves were determined using the cell proliferation assay system. Briefly, 5,000 or 10,000 cells of each cell line were plated in 96-well microculture plates in replicates of either 4 or 6. When cells became adherent, either 5 or 10 sequentially decreasing doses of the small molecule miRNA inhibitor were diluted into new media and added to individual wells. After either 24 or 48 hours, of a tetrazolium salt such as MTS, MTT, or WST-8 was added to each well at the same time of day as treatment and incubated for either 2 or 3 h at 37° C. The OD, measuring at the appropriate wavelength for the dye, was read at on a microplate spectrophotometer.
Cell proliferation is determined using a colorimetric assay. A tetrazolium salt such as MTS, MTT, or WST-8 is reduced by dehydrogenase activities in cells to give a formazan dye, which is soluble in the tissue culture media. The amount of the formazan dye (generated by the activities of dehydrogenases in cells, and directly proportional to the number of living cells) is measured after 3 h of incubation. The OD is read at 450 nm on a microplate spectrophotometer and growth values (%) are calculated as (OD treated cells/OD untreated cells)×100. The experiments are performed in triplicate. […] The OD is read at 450/550 nm on a microplate spectrophotometer, after one to seven days of the treatment. […]

[4] = system: U251 brain cancer cell line; test: Cell cycle analysis via flow cytometry; format: cell-based, human; settings: 5 μM
Description: In 6-well plates, 1×10^5 cells/mL were added into each well. After 24 h, sequential concentrations of DMSO and 4 based were administered and the plates were incubated for 48 h. The supernatant and adherent cells were collected and centrifugated. Each dose was done in triplicate, with each sample composing two wells. For apoptosis analysis, the supernatant was discarded after centrifugation and the pellet washed with PBS twice. Then, BD Annexin V-FITC/PI used to stain the cells for analysis via flow cytometry on the Gallios machine. For cell cycle analysis, after washing with PBS, cells were fixed with ethanol and incubated. They, were treated with RNase enzyme and analyzed.

[5] = Microsomal stability assay, human; format: in vitro ADME; settings: pH 7.4; human liver microsomes; 1 μM test compound; unit printed in b356 only
Description: as §2

[6] = system: miR-16, miR-28, miR-182, miR-10a, miR-21, miR-155; test: RT-qPCR of other micro-RNAs (selectivity); format: cell-based, human; settings: AGS and AsPC1 cell lines; normalized to U6
PTEN [7] = test: Proteomics (RPPA), PTEN expression; format: cell-based, human; parameters: dose or concentration left out as unconfirmed; settings: U251
Description: Proteomics analysis was conducted at the Reverse Phase Protein Array Core facility at MD Anderson Cancer Center. Briefly, controls and treated samples were analyzed in triplicate for 486 unique antibodies. The outputs were then normalized for protein loading and transformed to the linear value, and the normalized data was logy transformed (log2(x+1)) and sorted by FDR-adjusted p-values with a significance level of p<0.05. Differentially expressed proteins between groups were identified using the moderated t-test from LIMMA package. […] Analyses and graphical representations were carried out in R. When preparing the data for analysis, the loge fold change was calculated and adjusted p-value was used for analysis. Gene symbols were converted using the DAVID bioinformatics resource and the clusterProfiler data visualization and analysis package was used for pathway enrichment analysis. For pathway analysis, the Hallmark gene set and Gene Ontology was used for gene set and pathway enrichment.

VEGF = test: Western blot, VEGF expression; format: cell-based, human; settings: LN229 and U251 brain cancer cell lines
Description: as §1

[8] = system: U251, LN229, AGS, AsPC1 cell lines; test: Cell viability IC50 dose-response curves; format: cell-based, human; settings: majority of cell lines (U251, LN229, AGS, AsPC1); values not given
Description: as §3

[9] = mouse, liver microsomes, pH 7.4, mouse liver microsomes
[10] = rat, liver microsomes, pH 7.4, rat liver microsomes

Cc1ccc(F)c(NC(=O)Nc2ccc(-c3cccc4cn[nH]c34)cc2)c1 [Example 4, 1-(4-(1H-indazol-7-yl)phenyl)-3-(2-fluoro-5-methylphenyl)urea]
PTEN expression (Western blot) (PTEN [1]; LN229 brain cancer cell line): upregulation of PTEN
PTEN expression (Western blot) (PTEN [1]; U251 brain cancer cell line): upregulation of PTEN
CLint ([2]; mouse liver microsomes): 58.9 mL/min/kg
Half-life ([2]; mouse liver microsomes): 1.55 h
CLint scaled at 1 μM [2, 9]: 58 mL/min/kg
half-life at 1 μM [2, 9]: 1.53 h
CLint ([3]; rat liver microsomes): 41.1 mL/min/kg
Half-life ([3]; rat liver microsomes): 1.01 h
CLint scaled at 1 μM [3, 10]: 41 mL/min/kg
half-life at 1 μM [3, 10]: 1 h
formation of colonies (U251 brain cancer line): suppressed the formation of colonies
Drosha expression (Western blot) (Drosha): little to no variation
proliferation (MTS), every 24 h over 96 h (U251 cell line): significant difference in proliferation
cell cycle phase distribution [4]: clear increase shown at the G2/M phase
CLint scaled at 1 μM [5]: 14.9 mL/min/kg
half-life at 1 μM [5]: 1.93 h
selectivity for miR-10b over other micro-RNAs [6]: selectivity of compound 4 for miR-10b becomes apparent
PTEN expression (proteomics) (PTEN [7]): significantly upregulated
VEGF expression (Western blot) (VEGF): low to very slight variations
IC50 at 48 h compared with IC50 at 24 h [8]: lower than the corresponding IC50 value at 24 h
